Assay results reported in patent US9775844B2, “Heterocyclic compounds and uses thereof” (Infinity Pharmaceuticals, Inc., priority 2014, dated 2017).

Tests used:
PI3K γ = PI3K γ (Homo sapiens (Human), UniProt P48736); assay: PI3-Kinase Promega ADP-Glo Max assay; type: biochemical
PI3K β = PI3K β (Homo sapiens (Human), UniProt P42338); assay: PI3-Kinase Promega ADP-Glo Max assay; type: biochemical
PI3K α = PI3K α (Homo sapiens (Human), UniProt P42336); assay: PI3-Kinase Promega ADP-Glo Max assay; type: biochemical
Sequence of PI3K α (P42336 whole entry): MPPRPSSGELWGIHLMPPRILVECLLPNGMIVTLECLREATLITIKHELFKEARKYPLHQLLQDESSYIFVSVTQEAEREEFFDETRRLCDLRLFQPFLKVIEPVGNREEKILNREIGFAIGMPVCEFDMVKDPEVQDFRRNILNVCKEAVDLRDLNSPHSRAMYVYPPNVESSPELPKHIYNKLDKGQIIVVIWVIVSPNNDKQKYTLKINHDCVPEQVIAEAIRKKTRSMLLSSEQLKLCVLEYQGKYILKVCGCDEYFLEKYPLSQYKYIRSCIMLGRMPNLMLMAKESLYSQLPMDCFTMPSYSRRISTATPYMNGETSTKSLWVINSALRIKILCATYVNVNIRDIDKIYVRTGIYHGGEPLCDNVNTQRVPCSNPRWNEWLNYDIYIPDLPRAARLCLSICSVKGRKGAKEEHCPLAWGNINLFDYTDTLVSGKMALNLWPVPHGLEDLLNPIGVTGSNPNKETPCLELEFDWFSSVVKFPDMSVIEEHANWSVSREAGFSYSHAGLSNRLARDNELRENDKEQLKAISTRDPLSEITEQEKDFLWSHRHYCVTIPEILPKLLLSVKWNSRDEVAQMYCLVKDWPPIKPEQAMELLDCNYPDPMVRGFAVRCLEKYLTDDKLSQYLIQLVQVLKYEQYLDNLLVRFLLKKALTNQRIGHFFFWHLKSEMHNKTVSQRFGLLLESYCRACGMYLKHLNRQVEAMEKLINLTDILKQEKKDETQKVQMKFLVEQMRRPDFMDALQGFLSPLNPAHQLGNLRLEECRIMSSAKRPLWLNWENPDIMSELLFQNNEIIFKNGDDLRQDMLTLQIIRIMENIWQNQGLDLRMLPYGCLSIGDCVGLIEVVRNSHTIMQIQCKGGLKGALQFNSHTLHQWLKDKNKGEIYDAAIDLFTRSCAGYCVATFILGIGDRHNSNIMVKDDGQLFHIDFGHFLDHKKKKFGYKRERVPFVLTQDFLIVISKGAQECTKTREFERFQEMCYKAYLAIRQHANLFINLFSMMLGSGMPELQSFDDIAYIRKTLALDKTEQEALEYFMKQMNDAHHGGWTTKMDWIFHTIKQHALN
Sequence of PI3K α (P27986 whole entry partner): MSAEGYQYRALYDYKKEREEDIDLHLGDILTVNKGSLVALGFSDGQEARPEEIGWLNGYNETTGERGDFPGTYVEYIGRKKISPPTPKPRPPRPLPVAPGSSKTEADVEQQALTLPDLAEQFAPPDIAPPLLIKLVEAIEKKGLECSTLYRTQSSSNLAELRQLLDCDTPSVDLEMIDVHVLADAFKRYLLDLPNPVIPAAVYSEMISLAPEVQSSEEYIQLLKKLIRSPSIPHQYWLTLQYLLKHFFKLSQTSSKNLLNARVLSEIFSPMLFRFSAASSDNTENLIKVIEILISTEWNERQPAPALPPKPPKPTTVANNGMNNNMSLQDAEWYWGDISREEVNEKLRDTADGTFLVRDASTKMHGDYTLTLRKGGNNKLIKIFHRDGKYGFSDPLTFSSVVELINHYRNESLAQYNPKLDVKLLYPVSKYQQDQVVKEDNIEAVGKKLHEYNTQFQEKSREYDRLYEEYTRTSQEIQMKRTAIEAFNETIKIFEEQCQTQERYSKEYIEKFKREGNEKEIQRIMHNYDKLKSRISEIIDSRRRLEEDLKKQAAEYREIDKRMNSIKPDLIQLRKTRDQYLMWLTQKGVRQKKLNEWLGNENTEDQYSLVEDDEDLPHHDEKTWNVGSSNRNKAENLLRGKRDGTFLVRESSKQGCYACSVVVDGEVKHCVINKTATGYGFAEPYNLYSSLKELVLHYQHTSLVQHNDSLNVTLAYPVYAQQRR

[1] = target: PI3K-γ in RAW264.7 macrophages (Mus musculus (Mouse), UniProt Q9JHG7); assay: Raw264.7 p110 γ assay (PI3K-γ selective cellular assay, C5a-stimulated phospho-AKT); type: cell-based; details: for IC50: phospho-AKT, read-out: Raw264.7 p110 γ assay IC50
Sequence of PI3K-γ in RAW264.7 macrophages (Q9JHG7 whole entry): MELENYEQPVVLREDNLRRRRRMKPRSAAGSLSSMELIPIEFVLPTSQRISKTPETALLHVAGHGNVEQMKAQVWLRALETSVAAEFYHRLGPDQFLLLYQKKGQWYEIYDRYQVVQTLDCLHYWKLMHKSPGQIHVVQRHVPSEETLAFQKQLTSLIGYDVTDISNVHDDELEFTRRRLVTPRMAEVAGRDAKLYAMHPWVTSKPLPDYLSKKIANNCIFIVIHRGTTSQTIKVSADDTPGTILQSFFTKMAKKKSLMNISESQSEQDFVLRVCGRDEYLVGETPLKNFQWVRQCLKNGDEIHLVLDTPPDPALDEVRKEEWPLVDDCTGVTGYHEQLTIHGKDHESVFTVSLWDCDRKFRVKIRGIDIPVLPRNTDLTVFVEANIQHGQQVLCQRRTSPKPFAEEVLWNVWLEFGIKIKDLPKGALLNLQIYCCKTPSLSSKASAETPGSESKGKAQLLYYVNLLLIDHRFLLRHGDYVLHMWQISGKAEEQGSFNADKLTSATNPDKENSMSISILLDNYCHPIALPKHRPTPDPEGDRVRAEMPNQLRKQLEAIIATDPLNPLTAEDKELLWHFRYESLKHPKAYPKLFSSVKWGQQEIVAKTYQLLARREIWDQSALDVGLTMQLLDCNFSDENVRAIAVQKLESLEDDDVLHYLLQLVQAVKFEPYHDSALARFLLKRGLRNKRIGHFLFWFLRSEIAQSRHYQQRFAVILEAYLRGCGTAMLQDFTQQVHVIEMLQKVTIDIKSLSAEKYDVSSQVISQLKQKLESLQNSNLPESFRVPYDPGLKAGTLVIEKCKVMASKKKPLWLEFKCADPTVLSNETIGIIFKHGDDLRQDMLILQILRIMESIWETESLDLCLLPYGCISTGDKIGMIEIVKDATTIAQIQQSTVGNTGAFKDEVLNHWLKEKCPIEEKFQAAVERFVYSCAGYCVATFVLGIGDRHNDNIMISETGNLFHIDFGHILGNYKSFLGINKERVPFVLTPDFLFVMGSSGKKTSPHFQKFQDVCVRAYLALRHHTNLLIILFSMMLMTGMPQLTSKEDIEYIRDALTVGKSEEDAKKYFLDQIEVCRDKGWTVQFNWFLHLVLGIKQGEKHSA

PI3K-δ in RAJI cells = PI3K-δ in RAJI cells (Homo sapiens (Human), UniProt O00329); assay: RAJI p110 δ assay (PI3K-δ selective cellular assay, phospho-AKT); type: cell-based; details: phospho-AKT; read-out: RAJI p110 δ assay IC50
PI3K δ = PI3K δ (Homo sapiens (Human), UniProt O00329); assay: PI3-Kinase Promega ADP-Glo Max assay; type: biochemical

Sequence of PI3K β (P42338 whole entry): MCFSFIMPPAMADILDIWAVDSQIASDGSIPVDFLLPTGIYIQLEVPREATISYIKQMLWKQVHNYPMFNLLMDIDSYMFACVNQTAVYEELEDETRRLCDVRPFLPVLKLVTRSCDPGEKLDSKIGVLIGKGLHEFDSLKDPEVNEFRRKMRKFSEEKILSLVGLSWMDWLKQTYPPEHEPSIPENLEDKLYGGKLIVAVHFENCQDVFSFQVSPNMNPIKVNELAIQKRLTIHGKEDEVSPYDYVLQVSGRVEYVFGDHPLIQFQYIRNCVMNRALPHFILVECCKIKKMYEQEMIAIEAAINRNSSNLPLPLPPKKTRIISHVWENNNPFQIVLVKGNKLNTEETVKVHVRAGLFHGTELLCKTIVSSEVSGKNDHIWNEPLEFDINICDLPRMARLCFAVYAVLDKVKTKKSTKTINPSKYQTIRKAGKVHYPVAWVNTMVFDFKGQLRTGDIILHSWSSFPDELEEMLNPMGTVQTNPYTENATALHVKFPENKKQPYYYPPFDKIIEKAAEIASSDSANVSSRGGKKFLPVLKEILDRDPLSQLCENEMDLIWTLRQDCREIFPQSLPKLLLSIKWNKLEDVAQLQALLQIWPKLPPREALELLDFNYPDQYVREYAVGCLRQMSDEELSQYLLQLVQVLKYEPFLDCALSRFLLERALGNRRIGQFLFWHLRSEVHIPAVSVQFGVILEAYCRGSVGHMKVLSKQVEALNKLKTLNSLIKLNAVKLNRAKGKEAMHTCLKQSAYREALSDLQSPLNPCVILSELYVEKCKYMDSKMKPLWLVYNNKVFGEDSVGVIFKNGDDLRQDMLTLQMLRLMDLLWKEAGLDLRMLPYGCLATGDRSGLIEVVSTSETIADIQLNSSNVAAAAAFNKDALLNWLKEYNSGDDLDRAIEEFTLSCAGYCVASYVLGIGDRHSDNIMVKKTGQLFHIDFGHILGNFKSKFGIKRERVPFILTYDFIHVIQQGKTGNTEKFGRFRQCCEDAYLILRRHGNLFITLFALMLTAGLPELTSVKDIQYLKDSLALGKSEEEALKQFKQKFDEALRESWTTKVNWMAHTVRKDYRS
Sequence of PI3K β (P27986 whole entry partner): as the sequence (P27986 whole entry partner) above
Sequence of PI3K γ (P48736 whole entry): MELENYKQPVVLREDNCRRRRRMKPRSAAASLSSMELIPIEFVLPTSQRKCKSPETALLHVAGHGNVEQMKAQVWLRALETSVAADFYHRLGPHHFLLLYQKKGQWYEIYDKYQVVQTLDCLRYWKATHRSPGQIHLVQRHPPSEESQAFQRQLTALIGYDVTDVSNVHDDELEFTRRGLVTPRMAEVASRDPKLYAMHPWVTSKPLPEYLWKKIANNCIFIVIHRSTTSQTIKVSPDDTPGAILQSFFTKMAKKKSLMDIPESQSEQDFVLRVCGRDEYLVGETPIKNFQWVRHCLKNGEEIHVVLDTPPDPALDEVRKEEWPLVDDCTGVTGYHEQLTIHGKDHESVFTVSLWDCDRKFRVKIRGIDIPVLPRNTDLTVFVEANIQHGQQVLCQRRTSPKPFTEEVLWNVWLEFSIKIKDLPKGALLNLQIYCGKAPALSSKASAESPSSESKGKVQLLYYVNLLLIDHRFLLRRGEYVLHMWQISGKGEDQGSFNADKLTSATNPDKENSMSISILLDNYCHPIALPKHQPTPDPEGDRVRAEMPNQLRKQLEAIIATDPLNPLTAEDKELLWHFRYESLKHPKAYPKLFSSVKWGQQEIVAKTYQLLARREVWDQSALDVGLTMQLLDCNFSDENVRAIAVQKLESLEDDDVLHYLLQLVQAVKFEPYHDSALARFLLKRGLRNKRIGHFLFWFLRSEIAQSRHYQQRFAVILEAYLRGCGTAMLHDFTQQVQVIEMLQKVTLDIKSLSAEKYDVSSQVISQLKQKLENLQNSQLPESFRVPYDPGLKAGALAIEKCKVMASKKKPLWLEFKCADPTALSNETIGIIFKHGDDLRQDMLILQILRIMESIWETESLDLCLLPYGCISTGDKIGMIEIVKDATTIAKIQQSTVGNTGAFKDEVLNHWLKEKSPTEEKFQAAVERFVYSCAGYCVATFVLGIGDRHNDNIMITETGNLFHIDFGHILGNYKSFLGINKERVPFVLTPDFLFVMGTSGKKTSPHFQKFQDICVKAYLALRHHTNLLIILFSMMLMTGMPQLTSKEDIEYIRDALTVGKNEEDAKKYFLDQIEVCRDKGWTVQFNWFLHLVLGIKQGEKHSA

Row | Structure (SMILES) | IC50 (PI3K γ) [nM] | PI3K δ/PI3K γ IC50 (selectivity) (PI3K γ) | IC50 (PI3K β) [nM] | IC50 (PI3K α) [nM] | RAJIδ/Raw264.7 γ IC50 (selectivity) [1] | IC50 [1] [nM] | IC50 (PI3K-δ in RAJI cells) [nM] | IC50 (PI3K δ) [nM]
1 | COC(C)C#Cc1cccc2cc([C@H](C)NC(=O)c3c(N)nn4cccnc34)n(-c3ccccc3)c(=O)c12 (some centres unmarked) [Compound 22] | 100 to 500 | X (X = 10 to <50) | 5000 to 10000 | 5000 to 10000 | X (X = 10 to <50) | 1 to 50 | 1000 to 10000 | 5000 to 10000
2 | C[C@H](NC(=O)c1c(N)nn2cccnc12)c1cc2cccc(C#Cc3ccncc3)c2c(=O)n1-c1ccccc1 [Compound 26] | 100 to 500 | X (X = 10 to <50) | 5000 to 10000 | 5000 to 10000 | Y (Y = 50 to <850) | 1 to 50 | 100 to 500 | 5000 to 10000
3 | COc1cc(C#Cc2cccc3cc([C@H](C)NC(=O)c4c(N)nn5cccnc45)n(-c4ccccc4)c(=O)c23)ccn1 [Compound 28] | 1000 to 5000 | W (W = >1 to <10) | 5000 to 10000 | 5000 to 10000 | X (X = 10 to <50) | 1 to 50 | 100 to 500 | 5000 to 10000
4 | C[C@H](NC(=O)c1c(N)nn2cccnc12)c1cc2cccc(C#Cc3ccn(C)n3)c2c(=O)n1-c1ccccc1 [Compound 30] | 100 to 500 | Y (Y = 50 to <850) | 5000 to 10000 | 5000 to 10000 | Y (Y = 50 to <850) | 1 to 50 | 100 to 500 | 5000 to 10000
5 | C[C@H](NC(=O)c1c(N)nn2cccnc12)c1cc2cccc(C#Cc3cc[nH]c(=O)c3)c2c(=O)n1-c1ccccc1 [Compound 31] | 100 to 500 | X (X = 10 to <50) | 5000 to 10000 | 5000 to 10000 | W (W = >1 to <10) | 50 to 100 | 100 to 500 | 5000 to 10000
6 | C[C@H](NC(=O)c1c(N)nn2cccnc12)c1cc2cccc(C#Cc3ccccn3)c2c(=O)n1-c1ccccc1 [Compound 32] | 100 to 500 | Y (Y = 50 to <850) | 5000 to 10000 | 5000 to 10000 | Y (Y = 50 to <850) | 1 to 50 | 500 to 1000 | 5000 to 10000
7 | CCOC(C#Cc1cccc2cc([C@H](C)NC(=O)c3c(N)nn4cccnc34)n(-c3ccccc3)c(=O)c12)OCC [Compound 34] | 500 to 1000 | X (X = 10 to <50) | 5000 to 10000 | 5000 to 10000 | X (X = 10 to <50) | 50 to 100 | 500 to 1000 | 5000 to 10000
8 | Cc1c(C#Cc2cccc3cc([C@H](C)NC(=O)c4c(N)nn5cccnc45)n(-c4ccccc4)c(=O)c23)cnn1C [Compound 35] | 100 to 500 | Y (Y = 50 to <850) | 5000 to 10000 | 5000 to 10000 | Y (Y = 50 to <850) | 1 to 50 | 500 to 1000 | 5000 to 10000
9 | C[C@H](NC(=O)c1c(N)nn2cccnc12)c1cc2cccc(C#CC=O)c2c(=O)n1-c1ccccc1 [Compound 36] | 1 to 100 | X (key: V = 0.1 to 1; W = >1 to <10; X = 10 to <50; Y = 50 to <850) | 1 to 500 | 1000 to 5000 | W (key: V = 0.1 to 1; W = >1 to <10; X = 10 to <50; Y = 50 to <850) | 100 to 10000 | 100 to 500 | 1000 to 5000
10 | Cc1nn(C)c(C)c1C#Cc1cccc2cc([C@H](C)NC(=O)c3c(N)nn4cccnc34)n(-c3ccccc3)c(=O)c12 [Compound 37] | 1000 to 5000 | W (W = >1 to <10) | 5000 to 10000 | 5000 to 10000 | Y (Y = 50 to <850) | 1 to 50 | 1000 to 10000 | 5000 to 10000
11 | Cc1ncc(C#Cc2cccc3cc([C@H](C)NC(=O)c4c(N)nn5cccnc45)n(-c4ccccc4)c(=O)c23)n1C [Compound 38] | 1 to 100 | Y (Y = 50 to <850) | 5000 to 10000 | 5000 to 10000 | Y (Y = 50 to <850) | 1 to 50 | 500 to 1000 | 5000 to 10000
12 | Cc1nc(C#Cc2cccc3cc([C@H](C)NC(=O)c4c(N)nn5cccnc45)n(-c4ccccc4)c(=O)c23)cs1 [Compound 40] | 1 to 100 | Y (Y = 50 to <850) | 5000 to 10000 | 1000 to 5000 | Y (Y = 50 to <850) | 1 to 50 | 100 to 500 | 5000 to 10000
13 | C[C@H](NC(=O)c1c(N)nn2cccnc12)c1cc2cccc(C#Cc3cnc[nH]3)c2c(=O)n1-c1ccccc1 [Compound 43] | 100 to 500 | Y (Y = 50 to <850) | 5000 to 10000 | 5000 to 10000 | X (X = 10 to <50) | 1 to 50 | 100 to 500 | 5000 to 10000
14 | C#Cc1cccc2nc([C@H](C)NC(=O)c3c(N)nn4cccnc34)n(-c3ccc(F)c(F)c3)c(=O)c12 [Compound 45] | 100 to 500 | Y (Y = 50 to <850) | 5000 to 10000 | 5000 to 10000 | W (W = >1 to <10) | 1 to 50 | 100 to 500 | 5000 to 10000
15 | C#Cc1cccc2nc([C@H](C)NC(=O)c3c(N)nn4cccnc34)n(C)c(=O)c12 [Compound 48] | 500 to 1000 | W (W = >1 to <10) | 500 to 1000 | 1000 to 5000 | V (V = 0.1 to 1) | 1 to 50 | 1 to 100 | 1000 to 5000

Next, values leading:

Row | IC50 (PI3K γ) [nM] | PI3K δ/PI3K γ IC50 (selectivity) (PI3K γ) | IC50 (PI3K β) [nM] | IC50 (PI3K α) [nM] | RAJIδ/Raw264.7 γ IC50 (selectivity) [1] | IC50 [1] [nM] | IC50 (PI3K-δ in RAJI cells) [nM] | IC50 (PI3K δ) [nM] | Structure (SMILES)
16 | 100 to 500 | Y (Y = 50 to <850) | 5000 to 10000 | 5000 to 10000 | Y (Y = 50 to <850) | 1 to 50 | 500 to 1000 | 5000 to 10000 | Cc1nn(C)cc1C#Cc1cccc2cc([C@H](C)NC(=O)c3c(N)nn4cccnc34)n(-c3ccccc3)c(=O)c12 [Compound 19]
17 | 1 to 100 | X (X = 10 to <50) | 5000 to 10000 | 5000 to 10000 | X (X = 10 to <50) | 1 to 50 | 100 to 500 | 1000 to 5000 | C[C@H](NC(=O)c1c(N)nn2cccnc12)c1cc2cccc(C#Cc3ccc(=O)n(C)c3)c2c(=O)n1-c1ccccc1 [Compound 20]
18 | 1000 to 5000 | W (W = >1 to <10) | 1000 to 5000 | 1000 to 5000 | W (W = >1 to <10) | 1 to 50 | 100 to 500 | 5000 to 10000 | C[C@H](NC(=O)c1c(N)nn2cccnc12)c1cc2cccc(C#Cc3cncn3C)c2c(=O)n1C1CC1 [Compound 23]
19 | 1000 to 5000 | W (W = >1 to <10) | 1000 to 5000 | 1000 to 5000 | W (W = >1 to <10) | 1 to 50 | 100 to 500 | 1000 to 5000 | C[C@H](NC(=O)c1c(N)nn2cccnc12)c1cc2cccc(C#CC3CC3)c2c(=O)n1C1CC1 [Compound 24]
20 | 100 to 500 | X (X = 10 to <50) | 5000 to 10000 | 5000 to 10000 | Y (Y = 50 to <850) | 1 to 50 | 1 to 100 | 5000 to 10000 | C[C@H](NC(=O)c1c(N)nn2cccnc12)c1cc2cccc(C#CC3CCOCC3)c2c(=O)n1-c1ccccc1 [Compound 27]
21 | 100 to 500 | X (X = 10 to <50) | 1000 to 5000 | 5000 to 10000 | W (W = >1 to <10) | 1 to 50 | 1 to 100 | 1000 to 5000 | C[C@H](NC(=O)c1nccnc1N)c1cc2cccc(C#Cc3cnn(C)c3)c2c(=O)n1-c1ccccc1 [Compound 29]
22 | 100 to 500 | X (X = 10 to <50) | 5000 to 10000 | 5000 to 10000 | X (X = 10 to <50) | 50 to 100 | 1000 to 10000 | 5000 to 10000 | C[C@H](NC(=O)c1cnn2cccnc12)c1cc2cccc(C#Cc3cnn(C)c3)c2c(=O)n1-c1ccccc1 [Compound 39]
23 | 100 to 500 | Y (Y = 50 to <850) | 5000 to 10000 | 5000 to 10000 | Y (Y = 50 to <850) | 1 to 50 | 100 to 500 | 5000 to 10000 | C[C@H](NC(=O)c1c(N)nn2cccnc12)c1cc2cccc(C#Cc3cncs3)c2c(=O)n1-c1ccccc1 [Compound 41]
24 | 1 to 100 | Y (Y = 50 to <850) | 1000 to 5000 | 5000 to 10000 | W (W = >1 to <10) | 1 to 50 | 1 to 100 | 1000 to 5000 | C#Cc1cccc2nc([C@H](C)NC(=O)c3c(N)nn4cccnc34)n(-c3ccccc3)c(=O)c12 [Compound 46]
25 | 1 to 100 | X (X = 10 to <50) | 1000 to 5000 | 5000 to 10000 | V (V = 0.1 to 1) | 1 to 50 | 1 to 100 | 1000 to 5000 | C#Cc1cccc2nc([C@H](C)NC(=O)c3nccnc3N)n(-c3ccc(F)cc3)c(=O)c12 [Compound 49]
